Our source for the HDR efficiency values is patent publication US20210008161A1, “METHODS AND COMPOSITIONS FOR IMPROVED HOMOLOGY DIRECTED REPAIR” (CRISPR THERAPEUTICS AG, priority 2019, published 2021).

One test concerns HEK293 T cells. Briefly: BFP to GFP fluorescent reporter assay of HDR efficiency (AAVS1 locus). The test is classed as cell-based, human. As to conditions: different concentrations/doses, FIG. 1B, 1C. Here is the method:
An in vitro assay was conducted to determine the ability of various inhibitors and enhancers to improve the efficiency of HDR repair in HEK293 T cells. Specifically, a fluorescent reporter-based screening approach was developed to identify molecules that enhance gene-editing by HDR. A reporter system was generated in HEK293 T cells comprising a genomic AAVS1 locus that encoded either a blue fluorescent protein (BFP) or a green fluorescent protein (GFP) within the AAVS1 locus. A gene encoding BFP can be converted to a gene encoding GFP by substitution of cytosine at position 199 to uridine (e.g., a C to U transition at position 199). By introducing a DSB within the BFP gene using a CRISPR/Cas9 gene-editing system, a homology donor DNA encoding the nucleotide substitution can be used to edit the BFP gene to a GFP gene by HDR repair. Thus, a gene edit that induces a C to U transition at position 199 results in a change in cellular fluorescence. A change in the fluorescence of the cell measured by flow cytometry can be used to quantify efficiency of HDR repair. Additionally, the reverse gene edit can be performed for an AAVS1 locus encoding a GFP gene, wherein a GFP can be converted to BFP by substitution of uridine at position 199 to cytosine.
To create the reporter system, an AAV-based homology donor DNA encoding either BFP or GFP was created. The AAV-BFP or AAV-GFP donor was flanked by homology arms that were 1000 base pairs in length and expression of BFP or GFP was driven by the MND promoter (e.g., a synthetic promoter that contains the U3 region of a modified Moloney murine leukemia virus long term terminal repeat with myeloproliferative sarcoma virus enhancer and deleted negative control region, SEQ ID NO: 58). The viral DNA was packaged into capsids of adeno-associated virus serotype 6 (AAV6) vector. Either the BFP or GFP donor was introduced using the AAV6 vector into the AAVS1 locus in HEK293 T cells by homologous recombination using CRISPR-Cas9 as follows: purified Cas9 protein was complexed with two different single gRNAs (sgRNAs) targeting the AAVS1 locus at SEQ ID NO: 3 (spacer sequence identified by SEQ ID NO: 4; gRNA obtained from Maxcyte) or SEQ ID NO: 5 (spacer sequence identified by SEQ ID NO: 6; gRNA obtained from Thermo Fisher). Cas9 protein used in the Exemplary section provided herein refers to Cas9 polypeptide derived from S. pyogenes (SpCas9), unless indicated otherwise.
The Cas9-sgRNA complex was electroporated into the HEK293 T cells using the Lonza Nucleofector program CM-130. Approximately, 2 hours after electroporation, the cells were infected with various viral doses of AAV6 encoding a BFP (SEQ ID NO: 44) or GFP homology donor (SEQ ID NO: 47). One week later, cells were analyzed by flow cytometry to verify integration and expression of BFP or GFP in the AAVS1 locus. HEK293 T cells expressing BFP or GFP were sorted into single cells in 96-well plates. After ˜2 weeks of growth, DNA extracted from individual cells was analyzed for precise integration of the respective BFP or GFP gene into the AAVS1 locus by long-range PCR. This PCR analysis allowed for determination of whether the BFP/GFP gene was integrated in one or both alleles of the AAVS1 locus.
To introduce a gene edit that converts BFP to GFP, cells were electroporated with ribonucleoprotein (RNP) comprised of Cas9 and sgRNA that targets the BFP gene encoded in the AAVS1 locus. The sgRNA targeted a sequence in the BFP gene identified by SEQ ID NO: 7 (sgRNA spacer sequence identified by SEQ ID NO: 8). The sgRNA were prepared using a standard sgRNA cassette specific to SpCas9, as indicated by SEQ ID NO: 2 (wherein a, c, g, u represent 2′ O-methyl phosphorothioate nucleotides; s represents phosphorothioate nucleotides; and A, C, G, U, N represent canonical RNA nucleotides). The gRNAs used in the Exemplary section provided herein were sgRNAs prepared with the SpCas9 sgRNA cassette unless indicated otherwise. […]
For orientation: A reporter such as luciferase makes a cellular process visible.

In another test the test system is CD34-expressing LT-HSPCs. Description: HDR insertion of AAV-delivered GFP donor into HBB locus (GFP fluorescence). In kind it is cell-based, human. As to conditions: HBB locus in LT-HSPCs; any dose tested; data not shown. Here is the method:
Frozen CD34-expressing LT-HSPCs derived from plerixafor (i.e., Mozibil®)+GCSF-dual mobilized peripheral blood obtained from healthy human donors were purchased from a commercial vendor. LT-HSPCs were maintained in culture media comprised of the reagents shown in Table 4 and were incubated at 37° C., 5% carbon dioxide, 4% oxygen. […] 2×10^5 cells were edited with 3 μg Cas9 and 3 μg gRNA. The target gene sequence (including target sequence with PAM), R02 spacer sequence, and R02 sgRNA sequence are identified in Table 3.
The cells were transfected with a dsDNA homology donor encoding GFP under a SFFV promoter (SEQ ID NO: 60) that was delivered by AAV (SEQ ID NO: 56). […] The HDR efficiency was determined by measuring the level of GFP fluorescence in the cells following electroporation. To determine the effect of 53BP1 inhibition on HDR efficiency, the 53BP1 inhibitor i53 was introduced as an mRNA-encoded protein to the cells during electroporation with Cas9/gRNA RNP and AAV DNA that serves as a donor for homology directed repair.
The effect of 53BP1 inhibition on HDR efficiency was compared to other mRNA-encoded proteins that inhibit the NHEJ pathway. These included the proteins CYREN1 and CYREN2 that inhibit Ku70/80, a heterodimer that binds DNA blunt ends to prevent processing of 3′ single-stranded DNA tails necessary for HDR repair. Cells were electroporated with RNP, an AAV-GFP homology donor and mRNA encoding either i53 (mRNA ORF shown in SEQ ID NO: 69), CYREN1, or CYREN2.
The effect of treatment with i53 and Nu7441 was compared for improving efficiency of HDR repair of the HBB locus. Cells were treated with different doses of Nu7441 or with mRNA encoding i53 (ORF shown by SEQ ID NO: 69).

`CCCCCCNC(=O)Nc1ccc(S(=O)(=O)Nc2ccc(CCNC[C@H](O)COc3ccc(O)cc3)cc2)cc1` [L755,507]: the HDR efficiency entry with HEK293 T cells is reported as “no improvement”.

Turning to `C[C@]1(c2nc3c(C(N)=O)cccc3[nH]2)CCCN1` [Veliparib], the HDR efficiency result in the test on HEK293 T cells was “no improvement”.

`Cl.O=c1[nH]c([C@@H]2CCCN2)nc2c1oc1ccc(Cl)cc12` [XL 413, reference compound]: in the test on CD34-expressing LT-HSPCs, the HDR efficiency entry was “no improvement”.
